Measured values as given in ChEMBL document CHEMBL4627246, “Pyroglutamide-Based P2X7 Receptor Antagonists Targeting Inflammatory Bowel Disease” (J Med Chem, 2020).

What follows are compounds tested on A549 (assay: Cytotoxicity against human A549/ATCC cells assessed as effect on cell growth at 10 uM incubated for 48 hrs by sulforhodamine B assay). Conditions: a549, 48 h.
Format: cell-based

Row | SMILES | Activity
1 | O=C1N[C@H](C(=O)NCc2ccc(Cl)cc2Cl)CO1 | Non-Toxic
2 | CN1CCN(/C=C2\C[C@@H](C(=O)NCc3ccc(Cl)cc3Cl)N(c3cccs3)C2=O)CC1 | Non-Toxic
3 | N#Cc1ccc(N2C(=O)CC[C@H]2C(=O)NCc2ccc(Cl)cc2Cl)cc1 | Non-Toxic
4 | O=C(NCc1ccc(Cl)cc1Cl)[C@@H]1COC(=O)N1c1cccs1 | Non-Toxic

The compounds below were run on SR (assay: Cytotoxicity against human SR cells assessed as effect on cell growth at 10 uM incubated for 48 hrs by sulforhodamine B assay). Conditions: not given.
Format: cell-based

Row | SMILES | Activity
5 | O=C1N[C@H](C(=O)NCc2ccc(Cl)cc2Cl)CO1 | Non-Toxic
6 | CN1CCN(/C=C2\C[C@@H](C(=O)NCc3ccc(Cl)cc3Cl)N(c3cccs3)C2=O)CC1 | Non-Toxic
7 | N#Cc1ccc(N2C(=O)CC[C@H]2C(=O)NCc2ccc(Cl)cc2Cl)cc1 | Non-Toxic
8 | O=C(NCc1ccc(Cl)cc1Cl)[C@@H]1COC(=O)N1c1cccs1 | Non-Toxic

These compounds were tested on RPMI-8226 (assay: Cytotoxicity against human RPMI8226 cells assessed as effect on cell growth at 10 uM incubated for 48 hrs by sulforhodamine B assay). Conditions: rpmi-8226, 48 h.
Format: cell-based

Row | SMILES | Activity
9 | O=C1N[C@H](C(=O)NCc2ccc(Cl)cc2Cl)CO1 | Non-Toxic
10 | CN1CCN(/C=C2\C[C@@H](C(=O)NCc3ccc(Cl)cc3Cl)N(c3cccs3)C2=O)CC1 | Non-Toxic
11 | N#Cc1ccc(N2C(=O)CC[C@H]2C(=O)NCc2ccc(Cl)cc2Cl)cc1 | Non-Toxic
12 | O=C(NCc1ccc(Cl)cc1Cl)[C@@H]1COC(=O)N1c1cccs1 | Non-Toxic

What follows are compounds tested on MOLT-4 (assay: Cytotoxicity against human MOLT4 cells assessed as effect on cell growth at 10 uM incubated for 48 hrs by sulforhodamine B assay). Conditions: molt-4, 48 h.
Format: cell-based

Row | SMILES | Activity
13 | O=C1N[C@H](C(=O)NCc2ccc(Cl)cc2Cl)CO1 | Non-Toxic
14 | CN1CCN(/C=C2\C[C@@H](C(=O)NCc3ccc(Cl)cc3Cl)N(c3cccs3)C2=O)CC1 | Non-Toxic
15 | N#Cc1ccc(N2C(=O)CC[C@H]2C(=O)NCc2ccc(Cl)cc2Cl)cc1 | Non-Toxic
16 | O=C(NCc1ccc(Cl)cc1Cl)[C@@H]1COC(=O)N1c1cccs1 | Non-Toxic

What follows are compounds tested on EKVX (assay: Cytotoxicity against human EKVX cells assessed as effect on cell growth at 10 uM incubated for 48 hrs by sulforhodamine B assay). Conditions: not given.
Format: cell-based

Row | SMILES | Activity
17 | O=C1N[C@H](C(=O)NCc2ccc(Cl)cc2Cl)CO1 | Non-Toxic
18 | CN1CCN(/C=C2\C[C@@H](C(=O)NCc3ccc(Cl)cc3Cl)N(c3cccs3)C2=O)CC1 | Non-Toxic
19 | N#Cc1ccc(N2C(=O)CC[C@H]2C(=O)NCc2ccc(Cl)cc2Cl)cc1 | Non-Toxic
20 | O=C(NCc1ccc(Cl)cc1Cl)[C@@H]1COC(=O)N1c1cccs1 | Non-Toxic

The compounds below were run on HL-60(TB) (assay: Cytotoxicity against human HL-60(TB) cells assessed as effect on cell growth at 10 uM incubated for 48 hrs by sulforhodamine B assay). Conditions: not given.
Format: cell-based

Row | SMILES | Activity
21 | O=C1N[C@H](C(=O)NCc2ccc(Cl)cc2Cl)CO1 | Non-Toxic
22 | CN1CCN(/C=C2\C[C@@H](C(=O)NCc3ccc(Cl)cc3Cl)N(c3cccs3)C2=O)CC1 | Non-Toxic
23 | N#Cc1ccc(N2C(=O)CC[C@H]2C(=O)NCc2ccc(Cl)cc2Cl)cc1 | Non-Toxic
24 | O=C(NCc1ccc(Cl)cc1Cl)[C@@H]1COC(=O)N1c1cccs1 | Non-Toxic

These compounds were tested on NCI-H460 (assay: Cytotoxicity against human NCI-H460 cells assessed as effect on cell growth at 10 uM incubated for 48 hrs by sulforhodamine B assay). Conditions: nci-h460, 48 h.
Format: cell-based

Row | SMILES | Activity
25 | O=C1N[C@H](C(=O)NCc2ccc(Cl)cc2Cl)CO1 | Non-Toxic
26 | CN1CCN(/C=C2\C[C@@H](C(=O)NCc3ccc(Cl)cc3Cl)N(c3cccs3)C2=O)CC1 | Non-Toxic
27 | N#Cc1ccc(N2C(=O)CC[C@H]2C(=O)NCc2ccc(Cl)cc2Cl)cc1 | Non-Toxic
28 | O=C(NCc1ccc(Cl)cc1Cl)[C@@H]1COC(=O)N1c1cccs1 | Non-Toxic

The compounds below were run on HCT-15 (assay: Cytotoxicity against human HCT15 cells assessed as effect on cell growth at 10 uM incubated for 48 hrs by sulforhodamine B assay). Conditions: hct-15, 48 h.
Format: cell-based

Row | SMILES | Activity
29 | O=C1N[C@H](C(=O)NCc2ccc(Cl)cc2Cl)CO1 | Non-Toxic
30 | CN1CCN(/C=C2\C[C@@H](C(=O)NCc3ccc(Cl)cc3Cl)N(c3cccs3)C2=O)CC1 | Non-Toxic
31 | N#Cc1ccc(N2C(=O)CC[C@H]2C(=O)NCc2ccc(Cl)cc2Cl)cc1 | Non-Toxic
32 | O=C(NCc1ccc(Cl)cc1Cl)[C@@H]1COC(=O)N1c1cccs1 | Non-Toxic

The compounds below were run on KM12 (assay: Cytotoxicity against human KM12 cells assessed as effect on cell growth at 10 uM incubated for 48 hrs by sulforhodamine B assay). Conditions: km12, 48 h.
Format: cell-based

Row | SMILES | Activity
33 | O=C1N[C@H](C(=O)NCc2ccc(Cl)cc2Cl)CO1 | Non-Toxic
34 | CN1CCN(/C=C2\C[C@@H](C(=O)NCc3ccc(Cl)cc3Cl)N(c3cccs3)C2=O)CC1 | Non-Toxic
35 | N#Cc1ccc(N2C(=O)CC[C@H]2C(=O)NCc2ccc(Cl)cc2Cl)cc1 | Non-Toxic
36 | O=C(NCc1ccc(Cl)cc1Cl)[C@@H]1COC(=O)N1c1cccs1 | Non-Toxic

What follows are compounds tested on SW-620 (assay: Cytotoxicity against human SW620 cells assessed as effect on cell growth at 10 uM incubated for 48 hrs by sulforhodamine B assay). Conditions: sw-620, 48 h.
Format: cell-based

Row | SMILES | Activity
37 | O=C1N[C@H](C(=O)NCc2ccc(Cl)cc2Cl)CO1 | Non-Toxic
38 | CN1CCN(/C=C2\C[C@@H](C(=O)NCc3ccc(Cl)cc3Cl)N(c3cccs3)C2=O)CC1 | Non-Toxic
39 | N#Cc1ccc(N2C(=O)CC[C@H]2C(=O)NCc2ccc(Cl)cc2Cl)cc1 | Non-Toxic
40 | O=C(NCc1ccc(Cl)cc1Cl)[C@@H]1COC(=O)N1c1cccs1 | Non-Toxic

The compounds below were run on SF-295 (assay: Cytotoxicity against human SF295 cells assessed as effect on cell growth at 10 uM incubated for 48 hrs by sulforhodamine B assay). Conditions: sf-295, 48 h.
Format: cell-based

Row | SMILES | Activity
41 | O=C1N[C@H](C(=O)NCc2ccc(Cl)cc2Cl)CO1 | Non-Toxic
42 | CN1CCN(/C=C2\C[C@@H](C(=O)NCc3ccc(Cl)cc3Cl)N(c3cccs3)C2=O)CC1 | Non-Toxic
43 | N#Cc1ccc(N2C(=O)CC[C@H]2C(=O)NCc2ccc(Cl)cc2Cl)cc1 | Non-Toxic
44 | O=C(NCc1ccc(Cl)cc1Cl)[C@@H]1COC(=O)N1c1cccs1 | Non-Toxic

The compounds below were run on SF-539 (assay: Cytotoxicity against human SF539 cells assessed as effect on cell growth at 10 uM incubated for 48 hrs by sulforhodamine B assay). Conditions: sf-539, 48 h.
Format: cell-based

Row | SMILES | Activity
45 | O=C1N[C@H](C(=O)NCc2ccc(Cl)cc2Cl)CO1 | Non-Toxic
46 | CN1CCN(/C=C2\C[C@@H](C(=O)NCc3ccc(Cl)cc3Cl)N(c3cccs3)C2=O)CC1 | Non-Toxic
47 | N#Cc1ccc(N2C(=O)CC[C@H]2C(=O)NCc2ccc(Cl)cc2Cl)cc1 | Non-Toxic
48 | O=C(NCc1ccc(Cl)cc1Cl)[C@@H]1COC(=O)N1c1cccs1 | Non-Toxic

The compounds below were run on M14 (assay: Cytotoxicity against human M14 cells assessed as effect on cell growth at 10 uM incubated for 48 hrs by sulforhodamine B assay). Conditions: m14, 48 h.
Format: cell-based

Row | SMILES | Activity
49 | O=C1N[C@H](C(=O)NCc2ccc(Cl)cc2Cl)CO1 | Non-Toxic
50 | CN1CCN(/C=C2\C[C@@H](C(=O)NCc3ccc(Cl)cc3Cl)N(c3cccs3)C2=O)CC1 | Non-Toxic
51 | N#Cc1ccc(N2C(=O)CC[C@H]2C(=O)NCc2ccc(Cl)cc2Cl)cc1 | Non-Toxic
52 | O=C(NCc1ccc(Cl)cc1Cl)[C@@H]1COC(=O)N1c1cccs1 | Non-Toxic

Each compound was assayed on OVCAR-5 (assay: Cytotoxicity against human OVCAR5 cells assessed as effect on cell growth at 10 uM incubated for 48 hrs by sulforhodamine B assay). Conditions: ovcar-5, 48 h.
Format: cell-based

Row | SMILES | Activity
53 | O=C1N[C@H](C(=O)NCc2ccc(Cl)cc2Cl)CO1 | Non-Toxic
54 | CN1CCN(/C=C2\C[C@@H](C(=O)NCc3ccc(Cl)cc3Cl)N(c3cccs3)C2=O)CC1 | Non-Toxic
55 | N#Cc1ccc(N2C(=O)CC[C@H]2C(=O)NCc2ccc(Cl)cc2Cl)cc1 | Non-Toxic
56 | O=C(NCc1ccc(Cl)cc1Cl)[C@@H]1COC(=O)N1c1cccs1 | Non-Toxic

What follows are compounds tested on SK-OV-3 (assay: Cytotoxicity against human SKOV3 cells assessed as effect on cell growth at 10 uM incubated for 48 hrs by sulforhodamine B assay). Conditions: sk-ov-3, 48 h.
Format: cell-based

Row | SMILES | Activity
57 | O=C1N[C@H](C(=O)NCc2ccc(Cl)cc2Cl)CO1 | Non-Toxic
58 | CN1CCN(/C=C2\C[C@@H](C(=O)NCc3ccc(Cl)cc3Cl)N(c3cccs3)C2=O)CC1 | Non-Toxic
59 | N#Cc1ccc(N2C(=O)CC[C@H]2C(=O)NCc2ccc(Cl)cc2Cl)cc1 | Non-Toxic
60 | O=C(NCc1ccc(Cl)cc1Cl)[C@@H]1COC(=O)N1c1cccs1 | Non-Toxic

The compounds below were run on 786-0 (assay: Cytotoxicity against human 786-0 cells assessed as effect on cell growth at 10 uM incubated for 48 hrs by sulforhodamine B assay). Conditions: 786-0, 48 h.
Format: cell-based

Row | SMILES | Activity
61 | O=C1N[C@H](C(=O)NCc2ccc(Cl)cc2Cl)CO1 | Non-Toxic
62 | CN1CCN(/C=C2\C[C@@H](C(=O)NCc3ccc(Cl)cc3Cl)N(c3cccs3)C2=O)CC1 | Non-Toxic
63 | N#Cc1ccc(N2C(=O)CC[C@H]2C(=O)NCc2ccc(Cl)cc2Cl)cc1 | Non-Toxic
64 | O=C(NCc1ccc(Cl)cc1Cl)[C@@H]1COC(=O)N1c1cccs1 | Non-Toxic

These compounds were tested on A498 (assay: Cytotoxicity against human A498 cells assessed as effect on cell growth at 10 uM incubated for 48 hrs by sulforhodamine B assay). Conditions: a498, 48 h.
Format: cell-based

Row | SMILES | Activity
65 | O=C1N[C@H](C(=O)NCc2ccc(Cl)cc2Cl)CO1 | Non-Toxic
66 | CN1CCN(/C=C2\C[C@@H](C(=O)NCc3ccc(Cl)cc3Cl)N(c3cccs3)C2=O)CC1 | Non-Toxic
67 | N#Cc1ccc(N2C(=O)CC[C@H]2C(=O)NCc2ccc(Cl)cc2Cl)cc1 | Non-Toxic
68 | O=C(NCc1ccc(Cl)cc1Cl)[C@@H]1COC(=O)N1c1cccs1 | Non-Toxic

What follows are compounds tested on ACHN (assay: Cytotoxicity against human ACHN cells assessed as effect on cell growth at 10 uM incubated for 48 hrs by sulforhodamine B assay). Conditions: not given.
Format: cell-based

Row | SMILES | Activity
69 | O=C1N[C@H](C(=O)NCc2ccc(Cl)cc2Cl)CO1 | Non-Toxic
70 | CN1CCN(/C=C2\C[C@@H](C(=O)NCc3ccc(Cl)cc3Cl)N(c3cccs3)C2=O)CC1 | Non-Toxic
71 | N#Cc1ccc(N2C(=O)CC[C@H]2C(=O)NCc2ccc(Cl)cc2Cl)cc1 | Non-Toxic
72 | O=C(NCc1ccc(Cl)cc1Cl)[C@@H]1COC(=O)N1c1cccs1 | Non-Toxic

The compounds below were run on UO-31 (assay: Cytotoxicity against human UO31 cells assessed as effect on cell growth at 10 uM incubated for 48 hrs by sulforhodamine B assay). Conditions: uo-31, 48 h.
Format: cell-based

Row | SMILES | Activity
73 | O=C1N[C@H](C(=O)NCc2ccc(Cl)cc2Cl)CO1 | Non-Toxic
74 | CN1CCN(/C=C2\C[C@@H](C(=O)NCc3ccc(Cl)cc3Cl)N(c3cccs3)C2=O)CC1 | Non-Toxic
75 | N#Cc1ccc(N2C(=O)CC[C@H]2C(=O)NCc2ccc(Cl)cc2Cl)cc1 | Non-Toxic
76 | O=C(NCc1ccc(Cl)cc1Cl)[C@@H]1COC(=O)N1c1cccs1 | Non-Toxic

What follows are compounds tested on DU-145 (assay: Cytotoxicity against human DU145 cells assessed as effect on cell growth at 10 uM incubated for 48 hrs by sulforhodamine B assay). Conditions: du-145, 48 h.
Format: cell-based

Row | SMILES | Activity
77 | O=C1N[C@H](C(=O)NCc2ccc(Cl)cc2Cl)CO1 | Non-Toxic
78 | CN1CCN(/C=C2\C[C@@H](C(=O)NCc3ccc(Cl)cc3Cl)N(c3cccs3)C2=O)CC1 | Non-Toxic
79 | N#Cc1ccc(N2C(=O)CC[C@H]2C(=O)NCc2ccc(Cl)cc2Cl)cc1 | Non-Toxic
80 | O=C(NCc1ccc(Cl)cc1Cl)[C@@H]1COC(=O)N1c1cccs1 | Non-Toxic
